Where two headings read alike, the source gives them in different places.

The results in this text go back to patent US11773127B2, “Compounds and methods for treating bacterial infections” (Washington University, priority 2017, dated 2023).

This test addresses T1, FmlHLD (Escherichia coli, UniProt P77588).
T1 construct: 6xHis (C); made in house; host or cells: E. coli C600, periplasm, pTRC99a
The experiment in a line: biochemical. It is filed as binding, E. coli. As to conditions: for inhibition at 10 µM: read-out: % Inhibition at [μM] [10], compound at 10 μM; for inhibitory potency against FmlH, in words: ELISA-based competition assay; for IC50: IC50 (μM), Table 5, Gal and GalNAc inhibition of FmlH. On the procedure:
Thereafter, wells were incubated with 200 μl blocking buffer (PBS+1% BSA) for 2 hours at 23° C., followed by incubation with 100 μl biotinylated FmlHLD diluted in blocking buffer to 20 μg/ml in the presence or absence of the tested compounds for 1 hr at 23° C. After washing 3× with PBS+0.05% TWEEN-20, 100 μl Streptavidin-HRP conjugate (BD Biosciences; 1:2000 dilution in blocking buffer) was added to each well for 1 hr at 23° C. After a final round of washing, plates were developed with 100 μl Tetramethylbenzidine (TMB, BD Biosciences) substrate, quenched within 1-2 min with 50 μl […], and absorbance measured at 450 nm.
Select top hit compounds and few low-scoring analogs from the virtual screening, as well as synthetic galactosides, were tested in the ELISA-based competition assay for their ability to inhibit binding of FmlHLD to ds-BSM. The ELISA assay was performed using the protocol described in Example 18. […] All compounds were tested at 100 μM; a subset was tested at 10 μM; and the strongest subset was additionally tested at 1 μM. […] Percent inhibition (PI) values are reported as the mean with standard error of the mean for galactosides tested at 100 μM (PI100), 10 μM (PI10), and 1 μM (PI1) in the ELISA-based competition assay. […] The “thio” designation indicates a sulfur linkage between the sugar and the aglycone group, the “phospho” designation indicates a phosphate group attached the C6-hydroxyl group on the sugar, and the “uro” designation indicates galacturonide as the sugar.
The ELISA assay was performed using the protocol described in Example 18. All compounds were tested at 1 μM and a subset was additionally tested at 100 nM. Average percent inhibition (PI) values are reported for compounds tested at 1 μM (PI1) and 100 nM (PI0.1).
Briefly, 1 μg bovine submaxillary mucin (Sigma) in 100 uL PBS were incubated with Immulon 4HBX 96-well plates overnight prior to treatment with 1 mU Arthrobacter ureafaciens sialidase for 1 hour at 37° C. to remove terminal sialic acid sugars. Wells were then blocked with 200 μL PBS+1% BSA for 2 hours at room temperature. Biotinylated FmlH^LD was diluted to 20 μg/mL in blocking buffer and incubated in the presence or absence of compounds serially diluted 2× down eight rows for 1 hour at room temperature. Wells were washed three times with PBS 0.05% TWEEN-20 then incubated with 100 μL of streptavidin-HRP conjugate (BD Biosciences; 1:2,000 dilution in blocking buffer) for one hour. After three additional PBS+0.05% TWEEN washes, plates were developed with 100 μL of tetramethylbenzidine (BD Biosciences) substrate and quenched with 50 μL of 1 M H2SO4. Total bound portion concentration was measured by the absorbance at 450 nm. IC50s were determined using the Graphpad Prism software.
The compounds synthesized herein were tested in the ELISA-based competition assay for their ability to inhibit binding of FmlHLD to ds-BSM. The ELISA assay was performed using the protocol described in Example 18. Compounds were tested at […], 1 μM, and 100 nM. as indicated on the table. […] ND means the corresponding value was not determined for this summary (but may be available elsewhere in the Examples).

[1] abbreviates: read-out: % Inhibition at [μM] [1], compound at 1 μM, inhibition of FmlHLD binding to ds-BSM.
[2] abbreviates: read-out: PI(1) (average percent inhibition), compound at 1 μM, Table 4.
[3] abbreviates: inhibition of FmlHLD binding to ds-BSM.
Setting [4] is: read-out: % Inhibition at [μM] [100], compound at 100 μM, inhibition of FmlHLD binding to ds-BSM.

T1 sequence (P77588 25-182): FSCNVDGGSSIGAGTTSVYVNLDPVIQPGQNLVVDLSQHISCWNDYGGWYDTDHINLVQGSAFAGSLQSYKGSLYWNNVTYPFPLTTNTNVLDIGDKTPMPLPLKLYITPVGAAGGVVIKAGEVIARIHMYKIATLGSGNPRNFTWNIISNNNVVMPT

For `CC(=O)N[C@H]1[C@H](Oc2cccc3ccncc23)O[C@H](CO)[C@H](O)[C@@H]1O` (stereo in doubt) [AM1186], the inhibition at 1 µM was determined as 23.5% under setting [1] and 23.5% under setting [2].

As for `OC[C@H]1O[C@@H](Oc2ccc3ccccc3c2)[C@H](O)[C@@H](O)[C@H]1O` [2-napthyl Gal, reference compound], under setting [3], the inhibition at 10 µM stood at 14.6%. Further, the inhibition at 100 µM under setting [4] was 78.8%.

`OC[C@H]1O[C@@H](SCCc2ccccc2)[C@H](O)[C@@H](O)[C@H]1O` [2-phenylethyl-thio-galactoside, reference compound]: the inhibition at 10 µM under setting [3] amounted to 2.31%. The inhibition at 100 µM under setting [4] is 49.9%.

Consider `OC[C@H]1O[C@@H](Oc2c[nH]c3ccccc23)[C@H](O)[C@@H](O)[C@H]1O` [3-indoxyl Gal, reference compound], for which the inhibition at 100 µM under setting [4] is 21.7%.

For `Nc1ccc(O[C@@H]2O[C@H](CO)[C@H](O)[C@H](O)[C@H]2O)cc1` [4-amino-phenyl Gal, reference compound], the inhibition at 10 µM under setting [3] turned out to be 9.8%. Further, the inhibition at 100 µM under setting [4] stood at 65.1%.

For `CC(C)S[C@@H]1O[C@H](CO)[C@H](O)[C@H](O)[C@H]1O` [36β-thio (IPTG), reference compound], the inhibition at 100 µM (read-out: PI100 (percent inhibition), galactoside at 100 μM, mean with standard error of the mean) turned out to be 23.7 ± 5.3%.

Consider `CC(=O)N[C@@H]1[C@@H](O)[C@@H](O)[C@@H](CO)O[C@H]1N(CC(=O)NC(C)(C)C)C(=O)c1cccc2cccnc12` [AM1165, N-((2R,3R,4R,5R,6R)-3-acetamido-4,5-dihydroxy-6-(hydroxymethyl)tetrahydro-2H-pyran-2 yl)-N-(2-“(tert-butylamino)-2-oxoethyl)quinoline-8-carboxamide], for which the inhibition at 1 µM reads like this: under setting [1], 5.57%; under setting [2], 5.57%.

Consider `CC(=O)N[C@H]1[C@H](Oc2cccc3cccnc23)O[C@H](CO)[C@H](O)[C@@H]1O` [AM1176], for which the inhibition at 1 µM is, setting by setting: under setting [1], 21%; under setting [2], 21%.

Turning to `CC(=O)N[C@H]1[C@H](Oc2cccc3ccc(C)nc23)O[C@H](CO)[C@H](O)[C@@H]1O` [AM1179, N-((2S,3R,4R,5R,6R)-4,5-dihydroxy-6-(hydroxymethyl)-2-((2-methylquinolin-8-yl)oxy)tetrahydro-2H-pyran-3-yl)acetamide], the inhibition at 1 µM was 25.2% under setting [1] and 25.2% under setting [2].

For `CC(=O)N[C@H]1[C@H](Oc2ccc3cccnc3c2)O[C@H](CO)[C@H](O)[C@@H]1O` [AM1180, N-((2S,3R,4R,5R,6R)-4,5-dihydroxy-6-(hydroxymethyl)-2-(quinolin-7-yloxy)tetrahydro-2H-pyran-3-yl)acetamide], the inhibition at 1 µM was 15.4% under setting [1] and 15.4% under setting [2].

As to `CC(C)(C)NC(=O)CN(C(=O)c1cccc2cccnc12)[C@@H]1O[C@H](CO)[C@H](O)[C@H](O)[C@H]1O` [AM1181, N-(2-(tert-butylamino)-2-oxoethyl)-N-((2R,3R,4S,5R,6R)-3,4,5-trihydroxy-6-(hydroxymethyl)tetrahydro-2H-pyran-2-yl)quinoline-8-carboxamide], the inhibition at 1 µM was 10.8% under setting [1] and 10.8% under setting [2].

Consider `CC(=O)N[C@H]1[C@H](Oc2ccc3ncccc3c2)O[C@H](CO)[C@H](O)[C@@H]1O` [AM1184, N-((2S,3R,4R,5R,6R)-4,5-dihydroxy-6-(hydroxymethyl)-2-(quinolin-6-yloxy)tetrahydro-2H-pyran-3-yl)acetamide], for which the inhibition at 1 µM was 7.56% under setting [1] and 7.56% under setting [2].

Consider `CNC(=O)c1cccc(-c2ccccc2O[C@@H]2O[C@H](CO)[C@H](O)[C@H](O)[C@H]2NC(C)=O)c1` [AM1189, 2′-(((2S,3R,4R,5R,6R)-3-acetamido-4,5-dihydroxy-6-(hydroxymethyl)tetrahydro-2H-pyran-2-yl)oxy)-N-methyl-[1,1′-biphenyl]-3-carboxamide], for which the “inhibitory potency against FmlH, in words” value (shortened to “inhibitory potency”) is reported as “equal or slightly reduced potency” and it took 3.36 µM to reach half-maximal inhibition (IC50). Further, the inhibition at 1 µM under setting [1] amounted to 12.3%. Also, under setting [2], the inhibition at 1 µM turned out to be 12.3%.

`CC(=O)N[C@H]1[C@H](Oc2cccc3c(C)ccnc23)O[C@H](CO)[C@H](O)[C@@H]1O` [AM1192, N-((2S,3R,4R,5R,6R)-4,5-dihydroxy-6-(hydroxymethyl)-2-((4-methylquinolin-8-yl)oxy)tetrahydro-2H-pyran-3-yl)acetamide]: the inhibition at 1 µM runs as follows: under setting [1], 16.8%; under setting [2], 16.8%.

As to `CC(=O)N[C@H]1[C@H](Oc2ccc3ccncc3c2)O[C@H](CO)[C@H](O)[C@@H]1O` [AM2002, N-((2S,3R,4R,5R,6R)-4,5-dihydroxy-6-(hydroxymethyl)-2-(isoquinolin-7-yloxy)tetrahydro-2H-pyran-3-yl)acetamide], the inhibition at 1 µM by setting is: under setting [1], 20.2%; under setting [2], 20.2%.

As to `CC(=O)N[C@H]1[C@H](Oc2cccc3cc4ccccc4nc23)O[C@H](CO)[C@H](O)[C@@H]1O` [AM2003, N-((2S,3R,4R,5R,6R)-2-(acridin-4-yloxy)-4,5-dihydroxy-6-(hydroxymethyl)tetrahydro-2H-pyran-3-yl)acetamide], the inhibition at 1 µM came out at 15.4% under setting [1] and 15.4% under setting [2].

In the case of `CC(=O)N[C@H]1[C@H](Oc2ccc3cnccc3c2)O[C@H](CO)[C@H](O)[C@@H]1O` [AM2007, N-((2S,3R,4R,5R,6R)-4,5-dihydroxy-6-(hydroxymethyl)-2-(isoquinolin-6-yloxy)tetrahydro-2H-pyran-3-yl)acetamide], the inhibition at 1 µM is 12.6% under setting [1] and 12.6% under setting [2].

For the compound `CC(=O)N[C@H]1[C@H](Oc2ccccc2-c2cccc(O)c2)O[C@H](CO)[C@H](O)[C@@H]1O` [AM2021, N-((2S,3R,4R,5R,6R)-4,5-dihydroxy-2-((3′-hydroxy-[1,1′-biphenyl]-2-yl)oxy)-6-(hydroxymethyl)tetrahydro-2H-pyran-3-yl)acetamide], the “inhibitory potency” value is “equal or slightly reduced potency” and the IC50 came out at 0.7 µM. Besides, the inhibition at 1 µM under setting [1] turned out to be 17.7%. For the same compound, under setting [2], the inhibition at 1 µM worked out at 17.7%.

Consider `CC(=O)N[C@H]1[C@H](Oc2ccccc2-c2cccc(F)c2)O[C@H](CO)[C@H](O)[C@@H]1O` [AM2028, N-((2S,3R,4R,5R,6R)-2-((3′-fluoro-[1,1′-biphenyl]-2-yl)oxy)-4,5-dihydroxy-6-(hydroxymethyl)tetrahydro-2H-pyran-3-yl)acetamide], for which the “inhibitory potency” value is listed as “equal or slightly reduced potency” and the IC50 was determined as 1.48 µM. For the same compound, under setting [1], the inhibition at 1 µM amounted to 11.8%. For the same compound, the inhibition at 1 µM under setting [2] came to 11.8%.

For `COc1cccc(-c2ccccc2O[C@@H]2O[C@H](CO)[C@H](O)[C@H](O)[C@H]2NC(C)=O)c1` [AM2029, N-((2S,3R,4R,5R,6R)-4,5-dihydroxy-6-(hydroxymethyl)-2-((3′-methoxy-[1,1′-biphenyl]-2-yl)oxy)tetrahydro-2H-pyran-3-yl)acetamide], the “inhibitory potency” value is “equal or slightly reduced potency” and the IC50 worked out at 2 µM. The inhibition at 1 µM under setting [1] came to 15.5%. In addition, under setting [2], the inhibition at 1 µM amounted to 15.5%.

With `CC(=O)N[C@H]1[C@H](Oc2ccccc2-c2cccc([N+](=O)[O-])c2)O[C@H](CO)[C@H](O)[C@@H]1O` [AM2030, N-((2S,3R,4R,5R,6R)-4,5-dihydroxy-6-(hydroxymethyl)-2-((3′-nitro-[1,1′-biphenyl]-2-yl)oxy)tetrahydro-2H-pyran-3-yl)acetamide], the “inhibitory potency” value is “equal or slightly reduced potency” and inhibition was half-maximal at 2.66 µM (IC50). The inhibition at 1 µM under setting [1] came to 9.25%. The inhibition at 1 µM under setting [2] stood at 9.25%.

The term inhibition denotes the change of the read-out against control, counted positive when it falls. The term IC50 denotes the concentration at which inhibition is half-maximal.
